The values below come from US20150351390A1, “COMPOSITIONS AND METHODS FOR AUXIN-ANALOG CONJUGATION” (PIONEER HI-BRED INTERNATIONAL, INC., priority 2012, published 2015).

Experiment [1] has as its system Transgenic Arabidopsis lines overexpressing SEQ ID NO:3. The experiment in a line: Root growth inhibition by 2,4-D, transgenic Arabidopsis. The class given is in vivo, Arabidopsis thaliana. Here is the method: Arabidopsis (Arabidopsis thaliana) expressing GH3 genes were produced using floral dip methods of Agrobacterium mediated transformation (Clough S J and Bent A F, 1998, Plant J. 16:735-43; Chung M. H., Chen M. K., Pan S. M. 2000. Transgenic Res. 9: 471-476; Weigel D. and Glazebrook J. 2006. In Planta Transformation of Arabidopsis. Cold Spring Harb. Protoc. 4668 3). Briefly, Arabidopsis (Col-0) plants were grown in soil in pots. The first inflorescence shoots were removed as soon as they emerged. Plants were ready for transformation when the secondary inflorescence shoots were about 3 inches tall. Agrobacterium carrying a suitable binary vector were cultured in 5 mL LB medium at 28° C. with shaking at 200 rpm for two days. 1 mL of the culture was then inoculated into 200 ml fresh LB media and incubated again with vigorous agitation for an additional 20-24 hours at 28° C. The Agrobacterium culture was then subjected to centrifugation at 6000 rpm in a GSA rotor (or equivalent) for 10 minutes. The pellet was resuspended in 20-100 mL of spraying medium containing 5% (wt/v) sucrose and 0.01-0.2% (v/v) Silwet L-77. The Agrobacterium suspension was transferred into a hand-held sprayer for spraying onto inflorescences of the transformation-ready Arabidopsis plants. The sprayed plants were covered with a humidity dome for 24 hours before the cover was removed for growth under normal growing conditions. Seeds were harvested. Screening of transformants was performed under sterile conditions. Surface sterilized seeds were placed onto MS-Agar plates (Phyto Technology labs Prod. No. M519) containing appropriate selective antibiotics (kanamycin 50 mg/L, hygromycin 20 mg/L, or bialaphos 10 mg/L). Anti-Agrobacteirum antibiotic timentin was also included in the media. Plates were cultured at 21° C. at 16 hr light for 7-14 days. Transgenic events harboring GH3 genes were germinated and transferred to soil pots in the greenhouse for evaluation of herbicide tolerance.
A selectable marker gene used to facilitate Arabidopsis transformation was a chimeric gene composed of the 35S promoter from Cauliflower Mosaic Virus (Odell et al. 1985. Nature 313:810-812), the bar gene from Streptomyces hygroscopicus (Thompson et al., 1987. EMBO J. 6:2519-2523), and the 3′UBQ14 terminator region from Arabidopsis (Callis et al., 1995. Genetics 139 (2), 921-939). Another visual selectable marker gene used to facilitate Arabidopsis transformation was a chimeric gene composed of the UBQ promoter from soybean (Xing et al., 2010. Plant Biotechnology Journal 8:772-782), the YFP coding sequence, and the 3′ region of the nopaline synthase gene from the T-DNA of the Ti plasmid of Agrobacterium tumefaciens. Bialophos was used as the selection agent during the transformation process. GH3 genes were expressed with a constitutive promoter, for example, the Arabidopsis UBQ10 promoter (Norris et al., 1993. Plant Mol Biol 21:895-906) or UBQ3 promoter (Norris et al., 1993. Plant Mol Biol 21:895-906) for strong or moderate expression, a GH3 coding sequence, and the 3′ terminator region of the French bean phaseolin gene (Sun et al., 1981. Nature 289:37-41; Slightom et al., 1983. Proc. Natl. Acad. Sci. U.S.A. 80 (7), 1897-1901)
Seeds of Arabidopsis ecotype Columbia (Col-0) and GH3 transgenic events were surface sterilized with 70% (v/v) ethanol for 5 minutes and 10% (v/v) bleach for 15 minutes. After being washed three times with distilled water, the seeds were incubated at 4° C. for 4 days. The seeds were then germinated on 1× Murashige and Skoog (MS) medium with a pH of 5.7, 3% (w/v) sucrose, and 0.8% (w/v) agar. After incubation for 3.5 days, the seedlings were transferred to the basal medium containing B5 vitamin, 3% (w/v) sucrose, […] MES (pH 5.7), 1.2% (w/v) agar, and filter sterilized auxin herbicides 2,4-D or dicamba was added to the media at 60° C. […] The concentrations of dicmaba were 0 μM, 1.0 μM, 5.0 μM, 7.0 μM, and 10 μM. […]

For experiment [2], the system named is Soybean seeds. The experiment can be described thus: Phytotoxicity evaluation during soybean germination. The class given is in vivo. As to conditions: 1 μM in germination media, 10 days. The protocol:
To evaluate the effect of synthetic auxin conjugates in plants, 2,4-D-Asp, 2,4-D-Glu, dicamba-Asp, and dicamba-Glu were synthesized (Irvine Chemistry Laboratory, Anaheim, Calif.) and tested for auxin effects during soybean germination.
Asp and Glu conjugates of 2,4-D and dicamba were dissolved in a small quantity of Na2CO3 and ethanol, respectively, diluted in ddH2O to obtain 10 mM stock solution, and filter sterilized. Soybean seeds of a Pioneer elite germplasm were sterilized with chlorine gas as following: a) two layers of seeds were placed in a 100×25 mm plastic Petri dish; b) in an exhaust fume hood, seeds were placed into a glass desiccator with a 250 mL beaker containing 100 mL bleach (5% NaOC1) and 3.5 mL 12N HCl was slowly added to the beaker; c) the lid was sealed closed on the desiccator and the seeds sterilized for at least 24 hr.
Sterilized soybean seeds were then imbibed in ddH2O under sterile conditions at 25° C. for 24 hours before germination test. For germination test, 6-8 imbibed seeds were placed on a 100×25 mm deep Petri dish plate containing 50 ml germination media supplemented with or without auxin herbicide conjugates. 1 L seed germination media contains 3.21 g GAMBORG B-5 basal medium (PhytoTech), 20 g sucrose, 5 g tissue culture agar, and is pH adjusted to 5.7. Media was autoclaved at 121° C. for 25 min and cooled to 60° C. before the addition of auxin conjugates. Germination was carried out in a Percival growth chamber at 25° C. under 18 hr light and 6 hr dark cycle at 90 to 150 μE/m2/s and grown for 10 days.

With `O=C(O)COc1ccc(Cl)cc1Cl` [2,4-D, 2,4-dichlorophenoxyacetic acid], the “Percentage of the average root length compared with 0 nM 2,4-D treatment” value is 80% in experiment [1] (Line #1, 10 nM 2,4-D); 43% in experiment [1] (Line #1, 100 nM 2,4-D); 83% in experiment [1] (Line #2, 10 nM 2,4-D); 36% in experiment [1] (Line #2, 100 nM 2,4-D); 88% in experiment [1] (Line #3, 10 nM 2,4-D); 63% in experiment [1] (Line #3, 100 nM 2,4-D). In addition, the “Percentage of the average root length compared with 0 nM 2,4-D treatment” value in experiment [1] (Line #4, 10 nM 2,4-D) is 101%; in experiment [1] (Line #4, 100 nM 2,4-D) it was 60%; in experiment [1] (Line #5, 10 nM 2,4-D), 76%; in experiment [1] (Line #5, 100 nM 2,4-D), 50%. In experiment [1] (transgenic line #4, 10 nM 2,4-D, result in words), the “Inhibition of root growth by 2,4-D” value is “completely alleviated”. In addition, in experiment [2], the “Soybean seed germination and growth” value is given as “seed germination was arrested”.
